Measured values published in patent US7820811B2, “Pro-drugs of adenosine receptor agonists” (CBT Development Limited, priority 2006, dated 2010).

Tests used:
[1] = cynamalogous monkeys, cited from earlier work
[2] = oral administration; cited from earlier work
[3] = monkey, multiple oral dosing, 14C-labelled; cited from earlier work
[4] = 20 mg/kg po; cited from earlier work
[5] = system: U937 human macrophage cells; conditions: cited from earlier work
[6] = system: streptozocin-induced diabetic neuropathy; test: streptozocin-induced diabetic neuropathy, static allodynia (von Frey hairs); format: in vivo, rats
Experimental: Diabetes was induced by a single i.p. injection of 50 mg/kg streptozocin (Sigma, 50 mg/ml/kg in citrate buffered saline 33 mM pH 4.5). Control animals received single i.p. injection of citrate buffered saline. […] Static allodynia was assessed using von Frey hairs and the paw withdrawal threshold (PWT) in grams (symbols represent the median and vertical bars represent the first and third quartiles) is indicated.

[7] = system: carageenan-induced oedema in a rat paw; conditions: rats, 20 mg/kg po; cited from earlier work
adenosine A2A receptor = adenosine A2A receptor (UniProt P30543); test: EC50 at the adenosine A2A receptor; format: biochemical
Excerpt: For the avoidance of doubt, the EC50 value of a compound is defined herein as the concentration of the compound that provokes a receptor response halfway between the baseline receptor response and the maximum receptor response (as determined, for example, using a dose-response curve).
The EC50 value should be determined under standard conditions (balanced salt solutions buffered to pH 7.4). For EC50 determinations using isolated membranes, cells and tissues this would be in buffered salt solution at pH 7.4 (e.g. cell culture medium), for example as in Daly et al., Pharmacol. (1993) 46, 91-100), or preferably as in Tilburg et al (J. Med. Chem. (2002) 45, 91-100). The EC50 could also be determined in vivo by measuring adenosine receptor mediated responses in a normal healthy animal, or even in a tissue perfused under normal conditions (i.e. oxygenated blood, or oxygenated isotonic media, also buffered at pH 7.4) in a normal healthy animal.

[8] = system: rat adjuvant model of arthritis; test: rat adjuvant model of arthritis, analgesic relief; format: in vivo

Nc1ccn([C@@H]2C[C@@H](O)[C@H](CO)O2)c(=O)n1 [2′-deoxy-β-L-cytidine]
oral bioavailability (of 2′-deoxy-β-L-cytidine) ([1]; oral): 18%
half-life (po) ([1]; po): 2.95 h

Nc1nc2c(ncn2COCCO)c(=O)[nH]1 [Acyclovir]
urinary excretion of Acyclovir [2]: 19%

CC(C)[C@H](N)C(=O)OCCOCn1cnc2c(=O)[nH]c(N)nc21 [Valacyclovir]
urinary excretion of Acyclovir [2]: 63%

N=C(N)c1ncn([C@@H]2O[C@H](CO)[C@@H](O)[C@H]2O)n1 [Viramidine]
drug level in red blood cells compared to Ribavarin [3]: only half
drug level in the liver compared to Ribavarin [3]: three times

COc1nc(N)c2ncn([C@@H]3O[C@H](CO)[C@@H](O)[C@H]3O)c2n1 [spongosine, 2-methoxyadenosine]
reduction in heart rate [4]: 25%
reduction in mean blood pressure [4]: 41%
phorbol ester induced TNF alpha release [5]: reduce phorbol ester induced TNF alpha release
alleviation of allodynia at late time points ([6]; 2.1 mg/kg dose cohort at 2, 3 and 4 hours): Significant alleviation of allodynia was still evident
dose dependence of reversal of streptozocin induced static allodynia ([6]; 0.6-2.1 mg/kg, po, STZ rats, PWT): dose dependant effects
reversal of static allodynia, all doses ([6]; all doses 0.6-2.1 mg/kg po, STZ rats, PWT): effective at reversing allodynia
reversal of static allodynia, top dose ([6]; top dose (2.1 mg/kg po), versus naïve non-streptozocin injected controls): fully reversed the allodynia
inhibition of carageenan-induced inflammation [7]: 25%
EC50 (adenosine A2A receptor): ~1000 nM
minimum plasma concentration giving maximal analgesic relief [8]: 0.06 µM
